Assay results as given in patent US20050064382A1, “Method of prevention of lysosomal leakage in eukaryotic cells by using 6-methyluracil based water-soluble compounds and method of producing thereof” (priority 2002, published 2005).

Columns and labels:
[1] = system: Drosophila; experiment: Sterol-deficit diet and both drugs: frequency of X-chromosomes loss in late oocytes of Drosophila; type: in vivo; settings: yeast of wild type
From the text: The classic genetic model was used, based on the well-known method: the frequency of mutations in Drosophila (fruit flies) caused by X-rays. It is known that the frequency of these mutations can be increased by adding to the food of females certain membrane destabilizers (we used Polyene Antibiotics—Amphotericin B), or by the use of a special diet. Like all insects, Drosophila obtain all of their sterols from food (yeast for Drosophila). A special diet rich with Nistatin (Polyene antibiotic) resistant yeast was used.
The frequency of the loss of x-chromosomes (males excluded) was measured after crossing with the […]. Females were given a dose of 1000 Roentgens 5 days before being given the food additive or “special diet”.
Influence of sterol-deficit diet and both drugs on the frequency of X-chromosomes loss in late oocytes of Drosophila. Groups 1-4 received yeast of wild type, groups 5,6 (diet) received nistatin resistant yeasts meaning groups 5,6 had abnormal sterols in membranes: […]

[2] = system: Drosophila; experiment: X-ray caused loss of X-chromosomes in late oocyte of Drosophila; type: in vivo; settings: 1000 Roentgens
[3] = Water solubility; type: physicochemical

Row | SMILES | Frequency of X-Chromosomes loss, % [1] | Frequency of the loss of X-chromosomes, % ([2]; 1.0 mkg/female) | Frequency of the loss of X-chromosomes, % ([2]; 5.0 mkg/female) | Frequency of the loss of X-chromosomes, % ([2]; 10.0 mkg/female) | Frequency of the loss of X-chromosomes, % ([2]; 15.0 mkg/female) | Frequency of the loss of X-chromosomes, % ([2]; 20.0 mkg/female) | solubility [3]
1 | C[C@@H]1[C@H](O)[C@@H](C)/C=C/C=C/C=C/C=C/C=C/C=C/C=C/[C@H](O[C@@H]2O[C@H](C)[C@@H](O)[C@H](N)[C@@H]2O)C[C@@H]2O[C@](O)(C[C@@H](O)C[C@@H](O)[C@H](O)CC[C@@H](O)C[C@@H](O)CC(=O)O[C@H]1C)C[C@H](O)[C@H]2C(=O)O [Amphotericin B, reference compound] | 4.3 ± 0.29% | 1.4 ± 0.19% | 2.1 ± 0.21% | 3.6 ± 0.35% | 4.1 ± 0.41% | 4.2 ± 0.61% | 
2 | O=C1CCC(N2C(=O)c3ccccc3C2=O)C(=O)N1 (stereo not shown) [thalidomides, thalidomide] |  |  |  |  |  |  | < 3000 µg/mL
